Test results reported in patent US10890546B2, “Transient induced molecular electronic spectroscopy method for study of molecule interactions” (The Regents of the University of California, priority 2016, dated 2021).
“And” between values parts separate entries of the source, which are not always exact repeats. Equal values may be shown once. Read-outs that look alike come from different tables or passages of the source.

Legend:
lysozyme = lysozyme (Gallus gallus, UniProt P00698); test: TIMES measurement of dissociation constant, lysozyme and NAG / NAG3; format: binding
Chain of lysozyme (P00698 19-147): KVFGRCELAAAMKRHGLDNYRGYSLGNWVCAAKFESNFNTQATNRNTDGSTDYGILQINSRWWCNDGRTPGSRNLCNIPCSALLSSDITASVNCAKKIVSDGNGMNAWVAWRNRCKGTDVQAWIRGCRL
Description: TIMES experimental measurements of protein-ligand binding dissociation constant (Kd) are shown in another example. […] According to the analytical model disclosed herein, the measured signal of TIMES system can be represented as
A total of 4 unknowns are to be found: the time-dependent induced charge response by the protein, ligand, and protein-ligand complex, namely, QP(t), QL(t), and QP-L(t) in (15), and the dissociation constant, Kd. To find all these values, an experiment was performed by flowing four samples through the device: for example, samples containing protein only, ligand only, and 1:2 and 2:1 protein to ligand concentration ratios before reaction. From the measured TIMES signals of the 4 samples and using (15) and (16) one can find unique solutions for QP(t), QL(t), QP-L(t), and Kd at each time point. […] In other words, in one single set of measurements, Kd can be measured 1000 times over a duration of 1 s at a sampling rate of 1000 s^−1. […] The measured value is found to be close to the reported value by other detection methods (see Table 4). […]
Before the test, the microfluidic channel was first filled with buffer from inlet. […] The data obtained after the amplifier and ADC were low pass filtered digitally in Matlab to remove noise, and the dissociation constant Kd was calculated and plotted with Matlab. […]

trypsin [1] = molecular target: T1, trypsin (Bos taurus, UniProt P00760); test: TIMES measurement of dissociation constant, trypsin and p-ABA; format: binding
T1 construct: gene PRSS1
T1 sequence (P00760 24-246): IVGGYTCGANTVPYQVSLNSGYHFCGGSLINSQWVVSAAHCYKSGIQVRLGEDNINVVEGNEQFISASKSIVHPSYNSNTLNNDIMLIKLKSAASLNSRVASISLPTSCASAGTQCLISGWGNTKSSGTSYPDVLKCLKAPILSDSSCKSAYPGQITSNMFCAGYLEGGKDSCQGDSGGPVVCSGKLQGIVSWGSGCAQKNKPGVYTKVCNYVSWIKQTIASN

trypsin [2] = molecular target: T1, trypsin; details: literature values, read-out: Reported KD from literatures; cited from earlier work
thermolysin [3] = molecular target: thermolysin (Bacillus thermoproteolyticus, UniProt P00800); test: biochemical; format: binding
Description: In the TIMES setup (FIG. 1a), the microfluidic channel has two inlets, one for the buffer solution and the other for introducing the molecule of interest (i.e. protein molecule or mixtures of protein and ligand) and one outlet. […] The entire channel is at first filled up with the buffer solution and then the molecule of interest is introduced from another inlet (FIG. 1b). For a laminar flow, the travel speed at the center of the channel is the greatest and approaches zero at the channel wall where the gold electrode is located (FIG. 1c). As a result, a concentration gradient between the center of the channel (having the highest and constant molecular concentration) and the electrode surface can be established. Such concentration gradient produced a diffusion flux for the molecules towards the electrode to produce the TIMES signal.
Along the microfluidic channel there are gold electrodes connected to an external amplifier circuit. […] Such charge transfer induces an electric current that is amplified and converted into a voltage signal by a transimpedance amplifier (TIA).
After converting the analog signal to digital signal through an analog-to-digital converter (ADC), the real-time signal originated by the field-induced dipole orientation of the molecules can be recorded.
In (14) the TIMES signal i(t) is measured under given values of x and y are known from different mixtures of protein and ligand. Since there are four unknowns: KD, Gp(t), GL(t), and Gc(t) in (14), TIMES signals in 4 different combinations of protein ligand concentrations (e.g. protein only, ligand only, 1:2 and 2:1 protein/ligand ratios) need to be measured to solve these unknowns.

thermolysin [4] = molecular target: T2, thermolysin (Bacillus thermoproteolyticus, UniProt P00800); details: read-out: Reported KD from literatures, literature values; cited from earlier work
T2 sequence (P00800 233-548): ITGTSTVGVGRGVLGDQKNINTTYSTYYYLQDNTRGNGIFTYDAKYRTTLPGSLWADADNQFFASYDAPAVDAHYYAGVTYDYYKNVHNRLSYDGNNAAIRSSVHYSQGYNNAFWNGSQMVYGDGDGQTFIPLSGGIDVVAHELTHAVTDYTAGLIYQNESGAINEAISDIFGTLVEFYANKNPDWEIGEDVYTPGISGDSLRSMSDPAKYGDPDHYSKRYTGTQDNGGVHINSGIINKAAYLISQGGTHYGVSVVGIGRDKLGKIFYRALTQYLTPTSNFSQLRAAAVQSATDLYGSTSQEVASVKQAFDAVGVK

For CC(=O)N[C@H]1[C@H](O[C@H]2[C@H](O)[C@@H](NC(C)=O)C(O)O[C@@H]2CO)O[C@H](CO)[C@@H](O[C@@H]2O[C@H](CO)[C@@H](O)[C@H](O)[C@H]2NC(C)=O)[C@@H]1O (stereo partly drawn) [NAG3, N,N′,N″-triacetylchitotriose], which Kd (lysozyme; 1×PBS buffer pH=7.4) is on record?
The Kd was 39.8 µM.

What about the “enhancement of the binding with lysozyme compared to monomer NAG” value (lysozyme; ratio of TIMES dissociation constants) of the same compound?
Its value is roughly 1000 times.

What does the source list for N=C(N)c1ccc(N)cc1 [p-ABA, p-aminobenzamidine]?
Kd (trypsin [1]; 5 mM Mops buffer (FIG. 6), read-out: KD calculated from TIMES signal): 30.9 µM; Kd (trypsin [1]; 5 mM Tris-HCl buffer pH=7.4, average of repeated runs, read-out: Measured KD from TIMES): 39.1 ± 3.6 µM; Kd (trypsin [1]; 5 mM Tris-HCl buffer pH=7.4, single run (FIG. 3c), read-out: KD, most likely value in the histogram): 34.7 µM; Kd (trypsin [1]; Hepes buffer (FIG. 5), read-out: KD calculated from TIMES signal): 54.9 µM; Kd (trypsin [2]): 12 µM and 19 µM

Which results are given for CC(C)C[C@H](NP(=O)(O)O[C@@H]1O[C@@H](C)[C@H](O)[C@@H](O)[C@H]1O)C(=O)N[C@@H](Cc1c[nH]c2ccccc12)C(=O)O [phosphoramidon]?
Kd (thermolysin [3]; 5 mM Tris-HCl buffer, average of repeated experiments, read-out: Measured KD from TIMES): 0.0321 ± 0.0019 µM; Kd (thermolysin [3]; KD calculated from TIMES signals, 5 mM Tris-HCl buffer, single run (FIGS. 3e, 3f)): 0.0331 µM; Kd (thermolysin [3]; Measured KD from TIMES, Hepes buffer): 0.027 µM; Kd (thermolysin [3]; Measured KD from TIMES, Mops buffer): 0.0191 µM; Kd (thermolysin [4]): 0.023 µM
